According to ChEMBL document CHEMBL1909046, “DrugMatrix in vitro pharmacology data”:

What was measured:
[1] = biological target: Beta-3 adrenergic receptor (Homo sapiens, UniProt P13945); assay: DRUGMATRIX: Adrenergic beta3 radioligand binding (ligand: [125I] Cyanopindolol); assay type: cell membranes, HEK293, Membrane; details: hek293; Not Active = under 50% inhibition at 10 µM
[2] = biological target: Sodium-dependent noradrenaline transporter (Homo sapiens, UniProt P23975); assay: DRUGMATRIX: Norepinephrine Transporter radioligand binding (ligand: [125I] RTI-55); assay type: cell membranes, MDCK, Membrane; details: mdck; Not Active = under 50% inhibition at 10 µM
[3] = DRUGMATRIX: Serotonin (5-Hydroxytryptamine) 5-HT3 radioligand binding (ligand: [3H] GR-65630); assay type: cell membranes, Membrane; details: hek293; Not Active = under 50% inhibition at 10 µM
[4] = DRUGMATRIX: GABAA, Muscimol, Central radioligand binding (ligand: [3H] Muscimol); assay type: cell membranes, Rattus norvegicus, Wistar, Brain, Membrane; details: Not Active = under 50% inhibition at 10 µM
[5] = biological target: T1, Neuropeptide Y receptor type 1 (Homo sapiens, UniProt P25929); assay type: cell membranes, Membrane; details: sk-n-mc; also: in other assays of this panel Not Active means under 50% inhibition at 10 µM
T1 sequence (P25929 whole entry): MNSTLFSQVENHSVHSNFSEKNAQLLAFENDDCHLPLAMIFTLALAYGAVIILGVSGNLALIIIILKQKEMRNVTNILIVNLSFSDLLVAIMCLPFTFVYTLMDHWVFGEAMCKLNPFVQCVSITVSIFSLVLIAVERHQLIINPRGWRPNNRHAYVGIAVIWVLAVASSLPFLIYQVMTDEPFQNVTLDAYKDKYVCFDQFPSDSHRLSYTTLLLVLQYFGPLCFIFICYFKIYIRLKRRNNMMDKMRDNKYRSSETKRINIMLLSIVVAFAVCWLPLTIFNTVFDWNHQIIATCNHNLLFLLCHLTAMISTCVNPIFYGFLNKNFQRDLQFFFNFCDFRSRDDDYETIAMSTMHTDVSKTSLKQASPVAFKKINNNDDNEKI

[6] = biological target: Delta-type opioid receptor (Homo sapiens, UniProt P41143); assay type: cell membranes, Membrane; details: hek293; also: in other assays of this panel Not Active means under 50% inhibition at 10 µM
Adenosine receptor A2a = Adenosine receptor A2a (Homo sapiens, UniProt P29274); assay: DRUGMATRIX: Adenosine A2A radioligand binding (ligand: […]); assay type: cell membranes, HEK293, Membrane; details: hek293; Not Active = under 50% inhibition at 10 µM
Sequence of Adenosine receptor A2a (P29274 whole entry): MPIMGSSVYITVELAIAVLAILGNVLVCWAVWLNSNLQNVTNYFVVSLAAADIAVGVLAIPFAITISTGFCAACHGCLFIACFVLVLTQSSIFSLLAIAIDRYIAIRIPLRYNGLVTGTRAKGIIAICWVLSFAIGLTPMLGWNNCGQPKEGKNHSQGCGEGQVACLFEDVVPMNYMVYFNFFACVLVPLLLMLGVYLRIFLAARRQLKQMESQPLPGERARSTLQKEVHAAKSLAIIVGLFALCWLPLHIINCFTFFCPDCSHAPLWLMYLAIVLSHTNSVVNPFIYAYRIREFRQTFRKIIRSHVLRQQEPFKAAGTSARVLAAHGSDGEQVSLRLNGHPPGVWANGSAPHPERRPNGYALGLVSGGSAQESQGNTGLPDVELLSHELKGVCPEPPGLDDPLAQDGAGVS

Sequence of Delta-type opioid receptor (P41143 whole entry): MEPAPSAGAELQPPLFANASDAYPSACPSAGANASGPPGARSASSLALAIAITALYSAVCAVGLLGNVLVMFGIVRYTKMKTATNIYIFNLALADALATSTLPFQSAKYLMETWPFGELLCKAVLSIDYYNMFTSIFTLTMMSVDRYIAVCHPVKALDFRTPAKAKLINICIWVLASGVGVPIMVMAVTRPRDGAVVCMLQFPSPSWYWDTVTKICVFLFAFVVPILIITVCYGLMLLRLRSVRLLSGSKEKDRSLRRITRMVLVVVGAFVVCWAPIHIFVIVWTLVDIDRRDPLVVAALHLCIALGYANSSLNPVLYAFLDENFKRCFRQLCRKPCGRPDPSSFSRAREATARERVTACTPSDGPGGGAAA
Sequence of Beta-3 adrenergic receptor (P13945 whole entry): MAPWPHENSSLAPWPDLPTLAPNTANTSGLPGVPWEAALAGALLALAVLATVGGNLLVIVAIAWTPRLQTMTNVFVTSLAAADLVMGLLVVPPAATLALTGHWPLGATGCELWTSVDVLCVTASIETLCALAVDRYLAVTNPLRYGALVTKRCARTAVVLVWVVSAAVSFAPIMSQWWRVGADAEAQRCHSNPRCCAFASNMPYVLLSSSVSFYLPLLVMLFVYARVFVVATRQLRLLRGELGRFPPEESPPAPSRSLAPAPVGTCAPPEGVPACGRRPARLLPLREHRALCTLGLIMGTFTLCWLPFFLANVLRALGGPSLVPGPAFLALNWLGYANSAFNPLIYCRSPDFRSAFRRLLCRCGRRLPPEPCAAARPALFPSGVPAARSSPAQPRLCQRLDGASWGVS
Sequence of Sodium-dependent noradrenaline transporter (P23975 whole entry): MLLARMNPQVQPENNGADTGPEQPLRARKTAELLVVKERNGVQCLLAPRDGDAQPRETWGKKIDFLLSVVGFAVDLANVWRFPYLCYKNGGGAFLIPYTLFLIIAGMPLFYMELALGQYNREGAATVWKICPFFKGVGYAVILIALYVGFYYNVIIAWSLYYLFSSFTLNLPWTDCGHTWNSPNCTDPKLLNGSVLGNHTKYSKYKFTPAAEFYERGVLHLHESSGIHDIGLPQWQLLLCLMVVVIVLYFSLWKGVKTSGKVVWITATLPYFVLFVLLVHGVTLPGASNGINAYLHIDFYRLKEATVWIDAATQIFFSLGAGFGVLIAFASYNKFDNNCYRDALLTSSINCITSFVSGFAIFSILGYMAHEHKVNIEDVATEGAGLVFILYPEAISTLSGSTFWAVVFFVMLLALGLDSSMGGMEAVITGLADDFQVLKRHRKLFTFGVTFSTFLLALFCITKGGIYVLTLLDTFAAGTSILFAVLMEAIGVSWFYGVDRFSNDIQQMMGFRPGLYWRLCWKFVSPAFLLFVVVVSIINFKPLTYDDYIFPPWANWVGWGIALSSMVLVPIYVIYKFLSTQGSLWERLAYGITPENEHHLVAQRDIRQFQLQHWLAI

SODIUM ORTHOVANAD
Not Active: IC50 [1] | Ki [1] | IC50 [2] | Ki [2] | IC50 [3] | Ki [3] | IC50 [4] | Ki [4] | IC50 [5] | Ki [5] | IC50 [6] | Ki [6] | IC50 (Adenosine receptor A2a) | Ki (Adenosine receptor A2a)
